Reference: the NIST ThermoML archive (doi:10.1021/je700152c)

Test: molar heat capacity at saturation pressure; xn = mol fraction of the nth substance listed

CCCCn1cc[n+](C)c1.Cc1ccc(S(=O)(=O)[O-])cc1 [1-butyl-3-methylimidazolium tosylate] + O
Conditions | molar heat capacity [J/K/mol]
272.47 K, Crystal, x1 = 0.83 | 347
272.55 K, Metastable crystal, x1 = 0.83 | 367.59
272.66 K, Crystal, x1 = 0.37 | 265.28
272.99 K, Crystal, x1 = 0.3 | 264.76
273.8 K, Crystal, x1 = 0.37 | 270.96
273.97 K, Crystal, x1 = 0.3 | 269.83
274.39 K, Metastable crystal, x1 = 0.83 | 371.51
274.51 K, Crystal, x1 = 0.83 | 353.78
274.92 K, Crystal, x1 = 0.37 | 276.89
274.93 K, Crystal, x1 = 0.3 | 276.18
275.88 K, Crystal, x1 = 0.3 | 281.68
276.03 K, Crystal, x1 = 0.37 | 283.2
276.22 K, Metastable crystal, x1 = 0.83 | 375.42
276.53 K, Crystal, x1 = 0.83 | 361.08
276.82 K, Crystal, x1 = 0.3 | 288.23
277.13 K, Crystal, x1 = 0.37 | 289.76
277.75 K, Crystal, x1 = 0.3 | 295.53
278.04 K, Metastable crystal, x1 = 0.83 | 379.33
278.22 K, Crystal, x1 = 0.37 | 296.83
278.52 K, Crystal, x1 = 0.83 | 369.42
278.68 K, Crystal, x1 = 0.3 | 301.77
279.29 K, Crystal, x1 = 0.37 | 304.4
279.59 K, Crystal, x1 = 0.3 | 309.59
279.86 K, Metastable crystal, x1 = 0.83 | 383.76
280.35 K, Crystal, x1 = 0.37 | 312.6
280.48 K, Crystal, x1 = 0.3 | 318.37
280.49 K, Crystal, x1 = 0.83 | 379.59
281.36 K, Crystal, x1 = 0.3 | 326.4
281.39 K, Crystal, x1 = 0.37 | 321.44
281.67 K, Metastable crystal, x1 = 0.83 | 388.19
282.23 K, Crystal, x1 = 0.3 | 334.33
282.42 K, Crystal, x1 = 0.37 | 331.41
282.42 K, Crystal, x1 = 0.83 | 391.58
283.09 K, Crystal, x1 = 0.3 | 343.11
283.44 K, Crystal, x1 = 0.37 | 340.37
283.47 K, Metastable crystal, x1 = 0.83 | 393.14
283.93 K, Crystal, x1 = 0.3 | 351.57
284.33 K, Crystal, x1 = 0.83 | 406.44
284.44 K, Crystal, x1 = 0.37 | 351.47
284.76 K, Crystal, x1 = 0.3 | 360.66
285.26 K, Metastable crystal, x1 = 0.83 | 399.66
285.41 K, Crystal, x1 = 0.37 | 362.2
285.58 K, Crystal, x1 = 0.3 | 372.5
286.18 K, Crystal, x1 = 0.83 | 423.91
286.37 K, Crystal, x1 = 0.3 | 390.05
286.38 K, Crystal, x1 = 0.37 | 375.33
287.02 K, Metastable crystal, x1 = 0.83 | 407.22
287.16 K, Crystal, x1 = 0.3 | 386.46
287.33 K, Crystal, x1 = 0.37 | 388.2
287.96 K, Crystal, x1 = 0.3 | 383.82
288 K, Crystal, x1 = 0.83 | 449.2
288.25 K, Crystal, x1 = 0.37 | 402.21
288.77 K, Crystal, x1 = 0.3 | 372.08
288.84 K, Metastable crystal, x1 = 0.83 | 414.26
289.16 K, Crystal, x1 = 0.37 | 417.23
289.6 K, Crystal, x1 = 0.3 | 343.95
289.76 K, Crystal, x1 = 0.83 | 475.27
290.05 K, Crystal, x1 = 0.37 | 434.26
290.49 K, Crystal, x1 = 0.3 | 303.04
290.69 K, Metastable crystal, x1 = 0.83 | 420.52
290.92 K, Crystal, x1 = 0.37 | 452.18
291.45 K, Crystal, x1 = 0.3 | 258.1
291.45 K, Crystal, x1 = 0.83 | 514.89
291.76 K, Crystal, x1 = 0.37 | 471.62
292.49 K, Crystal, x1 = 0.3 | 228.39
292.58 K, Crystal, x1 = 0.37 | 492.69
292.6 K, Metastable crystal, x1 = 0.83 | 426.25
293.09 K, Crystal, x1 = 0.83 | 549.83
293.38 K, Crystal, x1 = 0.37 | 514.4
293.57 K, Crystal, x1 = 0.3 | 214.64
294.16 K, Crystal, x1 = 0.37 | 540.9
294.56 K, Metastable crystal, x1 = 0.83 | 426.77
